According to patent publication US20050148495A1, “Methods and materials including for treating acne” (priority 2003, published 2005):
Read-outs that look alike come from different tables or passages of the source. Non-standard residues stand in square brackets, D forms with d. Residues, ends and D or L forms follow the SMILES beside them. d1Nal = N[C@H](Cc1cccc2ccccc12)C(=O)O

Tests used:
[1] = test system: P. granulosum; format: cell-based, Propionibacterium granulosum
Description: This example addresses studies relating to the antimicrobial activities of XMP.629. An in vitro assessment of antibiotic activity in XMP.629 and various known antibiotics against a representative panel of bacterial strains associated with acne was conducted. A broth dilution methodology was employed using guidelines established by National Committee for Clinical Laboratory Standards (NCCLS) for anaerobic organisms to establish an antibacterial profile for XMP.629. Assays to determine the minimal bactericidal concentrations (MBC) and minimal inhibitory concentration (MIC) were conducted for XMP.629 and other known antibiotics. Furthermore, test to determine post antibiotic effect (PAE) of XMP.629 were done.
Inoculum from a representative panel of bacterial strains associated with acne, such as P. acnes, P. avidum, P. granulosum, and Staphylococcus epidermis was prepared by suspending approximately 5-10 isolated bacterial colonies in pre-reduced MicroScan® Inoculum Water (Dade Behring, Deerfield, Ill.), and growing the bacterial suspension to log phase (approximately 48 hrs). An inoculum of between 1-5×10^6/mL was achieved by adding 100 μL of the suspension to 25 mL Brain Heart Infusion Broth (BHI) (Anaerobe Systems, Morgan Hill, Calif.).
A stock solution of XMP.629 dissolved in water at a concentration of 4.0 mg/mL was prepared. Dilute solutions of XMP.629 at concentrations ranging from about 1.25 to about 160 μg/mL were made in either water or formulation buffer (130 mM sodium chloride, 0.2% P103 (poloxamer 333), and 0.10% EDTA, pH 7.3). Aqueous stock solutions of clindamycin and erythromycin were prepared in water.
Each tube, containing a final volume of 1 mL, was mixed by vortexing. Control tubes containing only water or formulation buffer were prepared for each isolate. Initial growth controls were determined by removing 10 μL from the water control tube and diluting it by 100 fold. From this dilution, 10 μL was used for inoculation and for spreading over the surface onto Laked Blood Agar (LBA) (Anaerobe Systems, Morgan Hill, Calif.) plates. The tubes and plates were incubated in an anaerobic atmosphere at 37° C. for 48 h. After incubation, the tubes were mixed and 10 μL samples were removed from each tube for additional plating. These plates were then further incubated in an anaerobic atmosphere at 37° C. for 48-72 h and the resulting colonies were counted. After adjusting for the dilution factor, the lowest concentration of drug or combination of drugs reducing the inoculum by ≧99.9% was considered to be the minimum bactericidal concentration (MBC). MBC50 and 90 values represent where 50 and 90%, respectively, of the tested strain's MBC values are equal to or less than the indicated concentration. The lowest concentration of antibiotic(s) that inhibited visible growth in the culture tubes was considered to be the minimal inhibitory concentration (MIC).
For comparison, additional Propionibacterium strains, were tested.

[2] = Stability in aqueous solution as indicated by biological activity; format: physicochemical; conditions: 4° C.
Description: In additional studies, a variety of formulations of XMP.629 were tested for stability under various temperatures, such as 25° C., 40° C., and 50° C., and at various time points, such as 0.5, 1, and 2 months.

[3] = test system: Hanford minipigs; assay: Minipig subchronic dermal toxicity test with toxicokinetics; format: in vivo; conditions: one 70 μg/kg/day female
Description: XMP.629 was evaluated for potential toxicity when administered by a single daily dermal application to Hanford minipigs over the course of one month. The study group design and dosage levels tested were as follows:
The test article or placebo control was administered once daily to the dorsal surface of each animal for 29 consecutive days. General health, mortality and moribundity checks were conducted twice daily. General health examinations were performed by a veterinarian once prior to in-life initiation and weekly during the study. The animals were examined daily for overt toxic signs (post-dose observations) between one and two hours following dosing. Detailed clinical observations and individual body weights were performed weekly, beginning on study day 0, and on the day of scheduled euthanasia. Dermal scoring was performed once per week and on the day of scheduled euthanasia.
Hematology, coagulation and clinical chemistry parameters were evaluated once prior to in-life initiation (day -9) and near the conclusion of the dosing phase (day 26). Blood samples were also collected for anti-test article analyses on study day 26 and toxicokinetic (TK) analyses on study days 0 and 27. Ophthalmological examinations were performed once prior to in-life initiation and just prior to the end of the dosing phase. […]

[4] = test system: Streptococcus pneumoniae
[5] = [3H]-labeled XMP.629, 0.3 mg/kg intravenous, estimate
[6] = in vivo; conditions: both, Sprague-Dawley, rat, plasma, 0.2 mg/kg
Description: Using non-radiolabeled XMP.629, a pharmacokinetic study was conducted in an analogous manner as described above for ^3H-XMP.629. However, in this study, a 0.05 or a 0.2 mg/kg intravenous dose of XMP.629 was administered to 2 males and 2 females rats. Blood samples were collected for 168 hours following dosing and plasma XMP.629 concentrations were measured using liquid chromatography/mass spectrometry (LC/MS).

[7] = RMA 5740, Formulation Buffer Solvent, Study 1
[8] = RMA 5740, Formulation Buffer Solvent, Study 2
[9] = RMA 5740, Water Solvent, Study 1
[10] = RMA 5740, Water Solvent, Study 2
[11] = RMA 6867, Formulation Buffer Solvent, Study 1
[12] = RMA 6867, Formulation Buffer Solvent, Study 2
[13] = RMA 6867, Water Solvent, Study 1
[14] = RMA 6867, Water Solvent, Study 2
[15] = RMA 7093, Formulation Buffer Solvent, Study 1
[16] = RMA 7093, Formulation Buffer Solvent, Study 2
[17] = RMA 7093, Water Solvent, Study 1
[18] = RMA 7093, Water Solvent, Study 2
[19] = RMA 11787, Formulation Buffer Solvent, Study 1
[20] = RMA 11787, Formulation Buffer Solvent, Study 2
[21] = RMA 11787, Water Solvent, Study 1
[22] = RMA 11787, Water Solvent, Study 2

Which results are given for CC(C)C[C@@H](NC(=O)[C@H](N)CCCCN)C(=O)N[C@H](Cc1ccccc1)C(=O)N[C@H](CCCNC(=N)N)C(=O)N[C@H](Cc1cccc2ccccc12)C(=O)N[C@H](CCC(N)=O)C(=O)N[C@H](C)C(=O)N[C@H](CCCCN)C(=O)N[C@H](Cc1cccc2ccccc12)C(N)=O [XMP.629, NH2-lys-leu-phe-arg-(3-(1-naphthyl)-ala)-gln-ala-lys-(3-(1-naphthyl)-ala)-CONH2] (H-[dK][dL][dF][dR][d1Nal][dQ][dA][dK][d1Nal]-NH2)?
MBC50 ([1]; P. granulosum, 4 strains): 0.25 µg/mL; MBC90 ([1]; P. granulosum, 4 strains): 4 µg/mL; MBC Range ([1]; P. granulosum, 4 strains, in µg/mL): 0.25-4; MBC [1, 7]: 2 µg/mL; MIC [1, 7]: 1 µg/mL; MBC [1, 8]: 0.25 µg/mL; MIC [1, 8]: 0.25 µg/mL; MBC [1, 9]: 4 µg/mL; MIC [1, 9]: 2 µg/mL; MBC [1, 10]: 1 µg/mL; MIC [1, 10]: 1 µg/mL; MBC [1, 11]: 2 µg/mL; MIC [1, 11]: 0.5 µg/mL; MBC [1, 12]: 4 µg/mL; MIC [1, 12]: 4 µg/mL; MBC [1, 13]: 2 µg/mL; MIC [1, 13]: 1 µg/mL; MBC [1, 14]: 4 µg/mL; MIC [1, 14]: 4 µg/mL; MBC [1, 15]: 2 µg/mL; MIC [1, 15]: 1 µg/mL; MBC [1, 16]: 0.25 µg/mL; MIC [1, 16]: 0.25 µg/mL; MBC [1, 17]: 2 µg/mL; MIC [1, 17]: 2 µg/mL; MBC [1, 18]: 0.5 µg/mL; MIC [1, 18]: 1 µg/mL; MBC [1, 19]: 2 µg/mL; MIC [1, 19]: 2 µg/mL; MBC [1, 20]: 0.25 µg/mL; MIC [1, 20]: 0.25 µg/mL; MBC [1, 21]: 2 µg/mL; MIC [1, 21]: 2 µg/mL; MBC [1, 22]: 1 µg/mL; MIC [1, 22]: 1 µg/mL; stable in aqueous solution as indicated by biological activity [2]: greater than 6 months; Dermal observations [3]: single incidence of grade 2 (well defined) erythema; Minimum Inhibitory Concentrations ([4]; Streptococcus pneumoniae 6303): 8.00 µg/mL; Minimum Inhibitory Concentrations ([4]; Streptococcus pneumoniae 10031): 8.00 µg/mL; Minimum Inhibitory Concentrations ([4]; Streptococcus pneumoniae 35088): 2.00 µg/mL; CL (clearance) ([5]; male Sprague-Dawley rats, three compartment model): 358.7 g plasma/hr/kg; C0 (extrapolated plasma concentration at time 0) ([5]; rat): 2.49 μg equivalents/g; Vc (volume of distribution of the central compartment) ([5]; rat): 121.0 mL/kg; Vss (volume of distribution at steady state) ([5]; rat): 1657 mL/kg; t1/2 (average half-life) ([5]; rat): 13.8 min; t1/2α (α half-life) ([5]; rat): 1.92 min; t1/2β (β half-life) ([5]; rat): 46.2 min; t1/2γ (γ half-life) ([5]; rat): 8.3 h; clearance ([6]; intravenous): ~5.33 mL/min/kg; half-life ([6]; intravenous, alpha half-life, two compartment model): ~20 min; half-life ([6]; intravenous, terminal half-life, two compartment model): ~960 min; AUC ([6]; iv): 744 ng·h/mL; clearance ([6]; iv): 5.32 mL/min/kg; Vd ([6]; iv, Vc (volume of distribution of the central compartment), non-labeled XMP.629, 0.2 mg/kg intravenous, LC/MS, two compartment model, mean): 0.202 L/kg; Vd ([6]; iv, Vss (volume of distribution at steady state), non-labeled XMP.629, 0.2 mg/kg intravenous, mean): 2.25 L/kg; half-life ([6]; iv, t1/2 (average half-life), non-labeled XMP.629, 0.2 mg/kg intravenous, mean): 26.4 min; half-life ([6]; iv, t1/2 α (α half-life), non-labeled XMP.629, 0.2 mg/kg intravenous, mean): 21.2 min; half-life ([6]; iv, t1/2 β (β half-life), non-labeled XMP.629, 0.2 mg/kg intravenous, mean): 972 min
